# Experimental data: patent US20050222146A1, “N-substituted-n-sulfonylaminocyclopropane compounds and pharmaceutical use thereof” (priority 2003, published 2005)
# Assays:
# Type in all cases: biochemical
# MMP-1 = target: T1, MMP-1 (Homo sapiens, UniProt P03956); assay: MMP-1 inhibitory action, Type I collagen Activity Measurement kit (FITC-labeled collagen type I); conditions: 37° C. for 3 hr, read-out: Experimental Example 2 IC50 MMP1
# T1 sequence (P03956 100-469): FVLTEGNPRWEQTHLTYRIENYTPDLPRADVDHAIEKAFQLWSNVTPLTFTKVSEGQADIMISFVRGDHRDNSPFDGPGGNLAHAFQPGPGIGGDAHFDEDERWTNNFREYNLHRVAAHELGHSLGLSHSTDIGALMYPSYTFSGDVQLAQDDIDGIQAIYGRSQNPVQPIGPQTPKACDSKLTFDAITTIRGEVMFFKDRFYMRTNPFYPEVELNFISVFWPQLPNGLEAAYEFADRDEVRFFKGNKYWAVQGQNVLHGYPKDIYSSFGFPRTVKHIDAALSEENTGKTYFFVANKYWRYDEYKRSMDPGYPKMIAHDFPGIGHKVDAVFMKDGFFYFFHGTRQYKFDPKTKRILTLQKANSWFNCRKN
# Recombinant Human MMP-13 = target: T2, Recombinant Human MMP-13 (Homo sapiens, UniProt P45452); assay: MMP-13 inhibition, MMP-13 specific fluorescent substrate with quencher; conditions: synthetic substrate 7-MCA-Pro-CHA-Gly-NVal-His-Ala-DPA, 25° C. for 1 h; read-out: Experimental Example 3 IC50 MMP13
# T2 construct: purchased R&D systems 511-MM
# Experimental: Inhibitory activity of tested compounds on MMP-13 was measured using MMP-13 specific fluorescent substrate with quencher.
# The enzyme and substrate were diluted with Tris-HCl buffer, and test compounds were diluted with dimethyl sulfoxide (DMSO).
# Test compounds and the enzyme (Recombinant Human MMP-13: R&D systems, 511-MM) were added into 96-well plate. The reaction was initiated by adding synthetic substrate (7-MCA-Pro-CHA-Gly-NVal-His-Ala-DPA: enzyme systems products, Met-06) into the plate. After incubation at 25° C. for 1 h, the reaction was terminated by addition of reaction terminating solution containing acetic acid. Fluorescence intensity of each well was measured (Ex: 325 nm, Em: 405 nm) and the MMP-13 inhibitory activity of the compound in each well (%) was calculated based on the values of enzyme-free well and inhibitor-free well. The inhibitory activity of the compound was represented as IC50 (μM).
# aggrecanase-1 = target: T3, aggrecanase-1 (Homo sapiens, UniProt O75173); assay: Aggrecanase-1 inhibitory action, Particle Assay (GAG release from aggrecan-containing polyacrylamide particles); conditions: 37° C. for 15 hr, read-out: Experimental Example 1 IC50 AG1
# T3 sequence (O75173 213-837): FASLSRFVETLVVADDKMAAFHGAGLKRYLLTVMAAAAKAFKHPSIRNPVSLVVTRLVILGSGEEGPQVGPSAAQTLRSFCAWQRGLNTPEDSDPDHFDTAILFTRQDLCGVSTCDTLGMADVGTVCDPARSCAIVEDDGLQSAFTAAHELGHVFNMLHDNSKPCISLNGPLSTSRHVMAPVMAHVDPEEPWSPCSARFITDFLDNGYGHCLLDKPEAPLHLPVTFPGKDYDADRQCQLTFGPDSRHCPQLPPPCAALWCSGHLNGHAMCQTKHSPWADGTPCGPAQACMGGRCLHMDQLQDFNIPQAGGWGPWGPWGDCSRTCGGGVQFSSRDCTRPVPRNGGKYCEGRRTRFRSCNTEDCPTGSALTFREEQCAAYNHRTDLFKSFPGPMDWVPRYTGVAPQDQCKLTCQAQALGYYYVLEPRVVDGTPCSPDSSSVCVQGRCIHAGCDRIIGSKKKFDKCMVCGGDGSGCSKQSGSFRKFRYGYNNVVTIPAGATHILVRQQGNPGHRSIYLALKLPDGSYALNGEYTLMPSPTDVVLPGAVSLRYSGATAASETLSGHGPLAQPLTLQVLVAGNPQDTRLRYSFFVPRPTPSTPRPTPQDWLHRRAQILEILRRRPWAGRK
# Method in brief: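 IC50 (μM) derived from % inhibition, referenced to enzyme-free and inhibitor-free wells, of GAG release read as 1,9-dimethylmethylene blue absorbance at 595 nm (chondroitin sulfate standard). Substrate: aggrecan-bearing polyacrylamide particles, exposed to enzyme plus compound in Tris-HCl for 15 hr at 37 °C.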
Structure (SMILES),IC50 (MMP-1) [nM],IC50 (Recombinant Human MMP-13) [nM],IC50 (aggrecanase-1) [nM]
"O=C(O)CN([C@]1(C(=O)O)C[C@H]1c1ccccc1)S(=O)(=O)c1ccc(-c2cc(C(F)(F)F)on2)s1 [Example 2-09, (1R,2S)-1-{Carboxymethyl-[5-(5-trifluoromethyl-isoxazol-3-yl)-thiophene-2-sulfonyl]-amino}-2-phenyl-cyclopropanecarboxylic acid]",≥ 10000,≥ 1000,< 100
"O=C(O)CN([C@@]1(C(=O)O)C[C@@H]1c1ccccc1)S(=O)(=O)c1ccc(-c2ccc(Cl)cc2)s1 [Example 2-10, (1S,2R)-1-{Carboxymethyl-[5-(4-chloro-phenyl)-thiophene-2-sulfonyl]-amino}-2-phenyl-cyclopropanecarboxylic acid]",≥ 10000,≥ 10000,< 1000
"CN1CCN(C(=O)CN([C@@]2(C(=O)O)C[C@@H]2c2ccccc2)S(=O)(=O)c2ccc(-c3ccc(Cl)cc3)s2)CC1 [Example 2-11, (1S,2R)-1-{[5-(4-Chloro-phenyl)-thiophene-2-sulfonyl]-[2-(4-methyl-piperazin-1-yl)-2-oxo-ethyl]-amino}-2-phenyl-cyclopropanecarboxylic acid]",≥ 10000,≥ 10000,≥ 1000
"CN([C@]1(C(=O)O)C[C@H]1c1ccccc1)S(=O)(=O)c1ccc(-c2ccc(Cl)cc2)s1 [Example 2-12, (1R,2S)-1-{[5-(4-Chloro-phenyl)-thiophene-2-sulfonyl]-methyl-amino}-2-phenyl-cyclopropanecarboxylic acid]",≥ 10000,≥ 1000,≥ 1000
"CN1CCN(C(=O)OCCN([C@]2(C(=O)O)C[C@H]2c2ccccc2)S(=O)(=O)c2ccc(-c3ccc(Cl)cc3)s2)CC1 [Example 2-15, 4-Methyl-piperazine-1-carboxylic acid 2-{((1R,2S)-1-carboxy-2-phenyl-cyclopropyl)-[5-(4-chloro-phenyl)-thiophene-2-sulfonyl]-amino}-ethyl ester]",≥ 10000,≥ 1000,≥ 1000
"O=C(CN([C@]1(C(=O)O)C[C@H]1c1ccccc1)S(=O)(=O)c1ccc(-c2ccc(Cl)cc2)s1)N1CCOCC1 [Example 2-16, (1R,2S)-1-[[5-(4-Chloro-phenyl)-thiophene-2-sulfonyl]-(2-morpholin-4-yl-2-oxo-ethyl)-amino]-2-phenyl-cyclopropanecarboxylic acid]",≥ 10000,≥ 1000,≥ 1000
"CN1CCN(C(=O)CN([C@]2(C(=O)O)C[C@H]2c2ccccc2)S(=O)(=O)c2ccc(-c3ccc(Cl)cc3)s2)CC1 [Example 2-17, (1R,2S)-1-{[5-(4-Chloro-phenyl)-thiophene-2-sulfonyl]-[2-(4-methyl-piperazin-1-yl)-2-oxo-ethyl]-amino}-2-phenyl-cyclopropanecarboxylic acid]",≥ 10000,≥ 1000,≥ 1000
"O=C(O)[C@@]1(N(CCCO)S(=O)(=O)c2ccc(-c3ccc(Cl)cc3)s2)C[C@H]1c1ccccc1 [Example 2-18, (1R,2S)-1-[[5-(4-Chloro-phenyl)-thiophene-2-sulfonyl]-(3-hydroxy-propyl)-amino]-2-phenyl-cyclopropanecarboxylic acid]",≥ 10000,< 1000,≥ 1000
"O=C(OCCN([C@]1(C(=O)O)C[C@H]1c1ccccc1)S(=O)(=O)c1ccc(-c2ccc(Cl)cc2)s1)N1CCOCC1 [Example 2-19, Morpholine-4-carboxylic acid 2-{((1R,2S)-1-carboxy-2-phenyl-cyclopropyl)-[5-(4-chloro-phenyl)-thiophene-2-sulfonyl]-amino}-ethyl ester]",≥ 10000,< 1000,≥ 1000
"O=C(OCCCN([C@]1(C(=O)O)C[C@H]1c1ccccc1)S(=O)(=O)c1ccc(-c2ccc(Cl)cc2)s1)N1CCOCC1 [Example 2-20, Morpholine-4-carboxylic acid 3-{((1R,2S)-1-carboxy-2-phenyl-cyclopropyl)-[5-(4-chloro-phenyl)-thiophene-2-sulfonyl]-amino}-propyl ester]",≥ 10000,≥ 1000,≥ 1000
"CN1CCN(C(=O)OCCCN([C@]2(C(=O)O)C[C@H]2c2ccccc2)S(=O)(=O)c2ccc(-c3ccc(Cl)cc3)s2)CC1 [Example 2-21, 4-Methyl-piperazine-1-carboxylic acid 3-{((1R,2S)-1-carboxy-2-phenyl-cyclopropyl)-[5-(4-chloro-phenyl)-thiophene-2-sulfonyl]-amino}-propyl ester]",≥ 10000,≥ 1000,≥ 1000
"O=C1CN(S(=O)(=O)c2ccc(-c3ccc(Cl)cc3)s2)C2(C(=O)O)CC2(c2ccccc2)CN1 (stereo not drawn) [Example 2-25, 1R*,7S*)-2-[5-(4-Chloro-phenyl)-thiophene-2-sulfonyl]-4-oxo-7-phenyl-2,5-diaza-bicyclo[5.1.0]octane-1-carboxylic acid]",≥ 10000,≥ 1000,≥ 1000
"CN1CC2(c3ccccc3)CC2(C(=O)O)N(S(=O)(=O)c2ccc(-c3ccc(Cl)cc3)s2)CC1=O (stereo not drawn) [Example 2-27, (1R*,7R*)-2-[5-(4-Chloro-phenyl)-thiophene-2-sulfonyl]-5-methyl-4-oxo-7-phenyl-2-,5-diaza-bicyclo[5.1.0]octane-1-carboxylic acid]",≥ 10000,≥ 1000,≥ 1000
